Assay results from US11351268B2, “FGF21 C-terminal peptide optimization” (INDIANA UNIVERSITY RESEARCH AND TECHNOLOGY CORPORATION, priority 2016, dated 2022).
No end group written: not given here.

Assays:
[1] = target: T1, Klotho β (KLB) (Homo sapiens, UniProt Q86Z14); test: cell-based; assay type: cell-based; conditions: for Emax: Table 1, native sequence = 100% response, read-out: % max activity
T1 construct: expressed in transfected cells; host or cells: HEK 293T (ATCC), pooled Zeocin-selected cells stably expressing hKLB from pcDNA3.1(+)
T1 sequence (Q86Z14 1-1044): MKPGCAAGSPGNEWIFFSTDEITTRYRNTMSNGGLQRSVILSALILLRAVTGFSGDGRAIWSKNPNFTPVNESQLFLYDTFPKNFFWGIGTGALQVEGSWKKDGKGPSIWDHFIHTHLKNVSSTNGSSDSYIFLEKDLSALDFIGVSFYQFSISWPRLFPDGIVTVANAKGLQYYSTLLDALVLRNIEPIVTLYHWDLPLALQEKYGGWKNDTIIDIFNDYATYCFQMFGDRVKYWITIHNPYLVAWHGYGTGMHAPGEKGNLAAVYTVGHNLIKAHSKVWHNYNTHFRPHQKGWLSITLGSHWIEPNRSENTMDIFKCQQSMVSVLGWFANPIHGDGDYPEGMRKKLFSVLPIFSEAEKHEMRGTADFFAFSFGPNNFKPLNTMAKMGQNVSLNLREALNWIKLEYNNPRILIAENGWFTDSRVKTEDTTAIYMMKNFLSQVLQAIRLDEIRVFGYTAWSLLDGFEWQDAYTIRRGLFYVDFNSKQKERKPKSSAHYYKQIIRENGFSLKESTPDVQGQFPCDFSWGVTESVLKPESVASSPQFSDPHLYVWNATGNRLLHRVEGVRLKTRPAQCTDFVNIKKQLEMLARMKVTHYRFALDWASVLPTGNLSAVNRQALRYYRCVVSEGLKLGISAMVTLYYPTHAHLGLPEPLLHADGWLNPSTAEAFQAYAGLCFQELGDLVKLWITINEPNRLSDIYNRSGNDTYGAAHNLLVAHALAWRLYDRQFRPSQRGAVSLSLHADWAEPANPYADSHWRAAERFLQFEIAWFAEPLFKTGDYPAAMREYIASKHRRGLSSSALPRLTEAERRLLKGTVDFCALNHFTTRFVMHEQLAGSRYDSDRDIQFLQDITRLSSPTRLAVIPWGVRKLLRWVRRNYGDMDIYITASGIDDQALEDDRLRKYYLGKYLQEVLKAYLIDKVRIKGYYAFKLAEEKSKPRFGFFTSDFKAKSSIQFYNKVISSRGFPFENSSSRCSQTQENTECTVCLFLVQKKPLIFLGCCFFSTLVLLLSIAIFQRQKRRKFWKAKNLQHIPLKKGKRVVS
Protocol: (§1) Cells were cultured in 10% Fetal Bovine Serum containing DMEM High glucose GLUTAMAX® at 37 C, 95% humidity, 5% CO2. For generating the cell line with stable expression, human KLB gene was synthesized by Genscript and subcloned into pcDNA3.1(+) with ZEOCIN® resistance vector (INVITROGEN®) by NheI and NotI restriction enzyme sites. HEK 293T cells were obtained from ATCC and were transiently transfected at 80% confluency using Lipofectamine 3000 (Invitrogen). Selection for KLB-expressing cells was initiated 48 hours post-transfection in the growth media containing 100 μg/ml of ZEOCIN® (Gibco) and continued for 4 weeks with fresh media added every third day. Human KLB expression in pooled cells was confirmed by Western blot and a functional FGF21 MAPK phosphorylation assay.
(§2) 293 HEK cells expressing hKLB were plated to 90% confluency in 96 well plates coated with poly-D-Lysine. Cells were serum starved for three hours in 0.1% BSA containing media prior to stimulation with protein and/or an antagonist peptide for ten minutes at 37° C. The cell lysate was used for the detection of phospho-Erk1/2 levels by AlphaSureFire kit using the prescribed protocol. The degree of biochemical activation was recorded and analyzed using Origin software by logistic curve fitting. Tests at each concentration were done in triplicates, and the standard deviation is as shown in the graphs. The calculation of maximal activities was done keeping the FGF21 157-181 or FGF19 169-194 peptide activity as standard. The difference between the Erk1/2 phosphorylation signal for the highest (10 μM) and the lowest (0 μM) tested dose for native peptide was considered as 100% and accordingly all the other values were assigned.

[2] = system: FGF21 receptor; test: Erk1/2 phosphorylation assay: agonist activity in 293T HEK hKLB cells; assay type: cell-based, human; conditions: for IC50: full length FGF21 analogs, tested in triplicate; for EC50: read-out: EC-50
Protocol: as §1, §2

[3] = Table 1, alanine scan of FGF21 25mer, antagonism of native FGF21 response
[4] = Table 2(A), FGF21 157-181 alanine mutants, ≥95% maximal activity
[5] = Table 5, FGF19/FGF21 chimeric peptides
[6] = Table 6, derivatives of SEQ ID NO: 180
[7] = FIGS. 9A/9B, full length proteins, Erk1/2 phosphorylation

## PPDVGSSDPLAMVGPSQGRSPSYAS-NH2 (C-terminus assumed) [Peptide A11, PPDVGSSDPLAMVGPSQGRSPSYAS]
[1]; [3]
  IC50: 102 nM
[1]
  Emax: 98%
[1]; [4]
  IC50: 150 nM

## PPDVGSSDPLSMAGPSQGRSPSYAS-NH2 (C-terminus assumed) [Peptide A13, PPDVGSSDPLSMAGPSQGRSPSYAS]
[1]
  Emax: 87.9%

## PPDVGSSDPLSMVAPSQGRSPSYAS-NH2 (C-terminus assumed) [Peptide A14, PPDVGSSDPLSMVAPSQGRSPSYAS]
[1]
  % max activity: 97.7%
[1]; [4]
  IC50: 130 nM

## PPDVGSSDPLSMVGASQGRSPSYAS-NH2 (C-terminus assumed) [Peptide A15, PPDVGSSDPLSMVGASQGRSPSYAS]
[1]
  Emax: 93.9%
[1]; [4]
  IC50: 120 nM

## PPDVGSSDPLSMVGPAQGRSPSYAS-NH2 (C-terminus assumed) [Peptide A16, PPDVGSSDPLSMVGPAQGRSPSYAS]
[1]; [3]
  IC50: 120 nM
[1]
  Emax: 101%

## PPDVGSSDPLSMVGPSAGRSPSYAS-NH2 (C-terminus assumed) [Peptide A17, PPDVGSSDPLSMVGPSAGRSPSYAS]
[1]
  % max activity: 99.7%
[1]; [3]
  IC50: 139 nM
[1]; [4]
  IC50: 130 nM

## PPDVGSSDPLSMVGPSQARSPSYAS-NH2 (C-terminus assumed) [Peptide A18, PPDVGSSDPLSMVGPSQARSPSYAS]
[1]
  % max activity: 102.9%
[1]; [3]
  IC50: 139 nM
[1]; [4]
  IC50: 150 nM

## PPDVGSSDPLSMVGPSQGASPSYAS-NH2 (C-terminus assumed) [Peptide A19, PPDVGSSDPLSMVGPSQGASPSYAS]
[1]; [3]
  IC50: 102 nM
[1]
  Emax: 100%

## PPDVGSSDPLSMVGPSQGRAPSYAS-NH2 (C-terminus assumed) [Peptide A20, PPDVGSSDPLSMVGPSQGRAPSYAS]
[1]
  Emax: 73.5%

## PPDVGSSDPLSMVGPSQGRSASYAS-NH2 (C-terminus assumed) [Peptide A21, PPDVGSSDPLSMVGPSQGRSASYAS]
[1]
  Emax: 70.5%

## PPDVGSSDPLSMVGPSQGRSPAYAS-NH2 (C-terminus assumed) [Peptide A22, PPDVGSSDPLSMVGPSQGRSPAYAS]
[1]
  Emax: 78.5%

## PPDVGSSDPLSMVGPSQGRSPSAAS-NH2 (C-terminus assumed) [Peptide A23, PPDVGSSDPLSMVGPSQGRSPSAAS]
[1]
  % max activity: 73.6%

## PPDVGSSDPLSMVGPSQGRSPSYAA-NH2 (C-terminus assumed) [Peptide A25, PPDVGSSDPLSMVGPSQGRSPSYAA]
[1]
  % max activity: 99.0%

## PPDVGSSDPLSMVGPSQGRSPSYAS-NH2 [Peptide C25, PPDVGSSDPLSMVGPSQGRSPSYAS, reference compound]
[1]
  % max activity: 100.0%
[1]; FIG. 8B, FGF21 and FGF19 C-terminal peptides
  IC50: 40 nM
[1]; [5]
  IC50: 116 ± 4 nM

## PPDVGSSDPLSMVTGLEAVRSPSFEA-NH2 (C-terminus assumed) [Peptide 0435]
[1]; [5]
  IC50: 65.1 ± 4.8 nM

## PPDVLSMDPFGLVGPSQGRSPSFEA-NH2 (C-terminus assumed) [Peptide 0481]
[1]; [6]
  IC50: 2.6 ± 0.8 nM

## PPDVSSMDPFGLVGPSQGRSPSFEA-NH2 (C-terminus assumed) [Peptide 0482]
[1]; [6]
  IC50: 3 ± 1.3 nM

B1: FGF21 481K: analog of FGF21 481A where the C-terminal alanine is replaced with a lysine (protein)
chain: HPIPDSSPLLQFGGQVRQRYLYTDDAQQTECHLEIREDGTVGCAADQSPESLLQLKALKPGVIQILGVKTSRFLCQRPDGALYGSLHFDPEACSFREDLKEDGYNVYQSEAHGLPLHLPGDKSPHRKPAPRGPARFLPLPGLPPALPEPPGILAPQPPDVLSMDPFGLVGPSQGRSPSFEK
[2]
  IC50: 0.56 ± 0.06 nM

B2: FGF21 482K: analog of FGF21 482A where the C-terminal alanine is replaced with a lysine (protein)
chain: HPIPDSSPLLQFGGQVRQRYLYTDDAQQTECHLEIREDGTVGCAADQSPESLLQLKALKPGVIQILGVKTSRFLCQRPDGALYGSLHFDPEACSFREDLKEDGYNVYQSEAHGLPLHLPGDKSPHRKPAPRGPARFLPLPGLPPALPEPPGILAPQPPDVSSMDPFGLVGPSQGRSPSFEK
[2]
  IC50: 1.81 ± 0.18 nM

B3: FGF21 482A: modified FGF21 N-terminus fused to peptide 0482 (protein, listed as Homo sapiens)
chain: HPIPDSSPLLQFGGQVRQRYLYTDDAQQTECHLEIREDGTVGCAADQSPESLLQLKALKPGVIQILGVKTSRFLCQRPDGALYGSLHFDPEACSFREDLKEDGYNVYQSEAHGLPLHLPGDKSPHRKPAPRGPARFLPLPGLPPALPEPPGILAPQPPDVSSMDPFGLVGPSQGRSPSFEA
[2]
  IC50: 0.22 ± 0.03 nM

B4: FGF21 481A: modified FGF21 N-terminus fused to peptide 0481 (protein, listed as Homo sapiens)
chain: HPIPDSSPLLQFGGQVRQRYLYTDDAQQTECHLEIREDGTVGCAADQSPESLLQLKALKPGVIQILGVKTSRFLCQRPDGALYGSLHFDPEACSFREDLKEDGYNVYQSEAHGLPLHLPGDKSPHRKPAPRGPARFLPLPGLPPALPEPPGILAPQPPDVLSMDPFGLVGPSQGRSPSFEA
[2]
  IC50: 0.19 ± 0.08 nM

B5: FGF21 D164A: full length FGF21 with alanine at position 164 (protein)
chain: HPIPDSSPLLQFGGQVRQRYLYTDDAQQTEAHLEIREDGTVGGAADQSPESLLQLKALKPGVIQILGVKTSRFLCQRPDGALYGSLHFDPEACSFRELLLEDGYNVYQSEAHGLPLHLPGNKSPHRDPAPRGPARFLPLPGLPPALPEPPGILAPQPPDVGSSAPLSMVGPSQGRSPSYAS
[2]; [7]
  EC-50: inactive

B6: FGF21 P171A: full length FGF21 with alanine at position 171 (protein)
chain: HPIPDSSPLLQFGGQVRQRYLYTDDAQQTEAHLEIREDGTVGGAADQSPESLLQLKALKPGVIQILGVKTSRFLCQRPDGALYGSLHFDPEACSFRELLLEDGYNVYQSEAHGLPLHLPGNKSPHRDPAPRGPARFLPLPGLPPALPEPPGILAPQPPDVGSSDPLSMVGASQGRSPSYAS
[2]; [7]
  EC50: 4.5 nM

B7: FGF21-19 K194A: chimeric analog: core of FGF21 1-156 and an extension of the FGF19 169-194 K194A peptide (protein)
chain: HPIPDSSPLLQFGGQVRQRYLYTDDAQQTEAHLEIREDGTVGGAADQSPESLLQLKALKPGVIQILGVKTSRFLCQRPDGALYGSLHFDPEACSFRELLLEDGYNVYQSEAHGLPLHLPGNKSPHRDPAPRGPARFLPLPGLPPALPEPPGILAPQPLETDSMDPFGLVTGLEAVRSPSFEA
[2]; [7]
  % maximal activity: 84%
  EC50: 0.5 nM
[2]; agonist activity of chimeric analog
  fold more potent than native FGF21: approximately 5 fold
